Here are results for 53 compounds from US11612604B2, “Methods of treating cancer with PLK4 inhibitors” (LUDWIG INSTITUTE FOR CANCER RESEARCH LTD, priority 2017, dated 2023).

For this experiment, the target named is T1, PLK4 (Homo sapiens, UniProt O00444).
T1 sequence (O00444 1-970): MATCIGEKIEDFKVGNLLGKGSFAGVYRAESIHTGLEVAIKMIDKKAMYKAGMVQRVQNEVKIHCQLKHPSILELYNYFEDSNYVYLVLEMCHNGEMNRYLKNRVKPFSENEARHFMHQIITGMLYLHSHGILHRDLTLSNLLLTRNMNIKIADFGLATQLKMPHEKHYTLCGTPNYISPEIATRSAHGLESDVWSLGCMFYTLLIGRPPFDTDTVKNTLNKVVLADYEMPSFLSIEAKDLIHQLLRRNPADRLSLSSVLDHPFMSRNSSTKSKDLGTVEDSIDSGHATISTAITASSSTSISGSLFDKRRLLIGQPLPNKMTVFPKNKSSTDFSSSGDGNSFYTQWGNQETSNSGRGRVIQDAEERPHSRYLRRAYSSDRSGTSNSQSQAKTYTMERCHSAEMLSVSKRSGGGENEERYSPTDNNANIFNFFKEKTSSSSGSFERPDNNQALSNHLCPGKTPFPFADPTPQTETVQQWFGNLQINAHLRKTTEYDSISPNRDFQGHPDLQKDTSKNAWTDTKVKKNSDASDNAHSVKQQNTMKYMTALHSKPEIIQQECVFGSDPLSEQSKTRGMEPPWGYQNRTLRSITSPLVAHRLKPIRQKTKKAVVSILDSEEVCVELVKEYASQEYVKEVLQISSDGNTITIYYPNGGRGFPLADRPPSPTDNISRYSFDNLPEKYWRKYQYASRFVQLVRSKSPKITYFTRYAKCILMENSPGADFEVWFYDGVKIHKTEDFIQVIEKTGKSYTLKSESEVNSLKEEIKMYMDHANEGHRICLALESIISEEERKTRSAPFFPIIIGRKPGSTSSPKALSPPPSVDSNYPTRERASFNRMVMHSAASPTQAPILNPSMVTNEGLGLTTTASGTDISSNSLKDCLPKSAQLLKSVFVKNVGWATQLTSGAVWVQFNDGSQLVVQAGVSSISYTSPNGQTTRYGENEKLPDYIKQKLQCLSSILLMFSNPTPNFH
The experiment can be described thus: Activity (IC50) of the Table 1 compounds as PLK4 inhibitors. Particulars: Table 1, IC50 class. The format is biochemical.

With `COc1c(Nc2cc(C)[nH]n2)nc(Sc2ccc(NC(=O)C3CC3)cc2)nc1N1CCCCC1`, the IC50 (commonly the midpoint of a concentration-inhibition curve) is less than 0.1 µM.
In the case of `COc1c(Nc2cc(C)[nH]n2)nc(Sc2ccc(NC(=O)C3CC3)cc2)nc1NC(C)C` it was less than 0.1 µM.
Next, `CNc1nc(Sc2ccc(NC(=O)C3CC3)cc2)nc(Nc2cc(C)[nH]n2)c1OC`: less than 0.1 µM.
Next, `CCNc1nc(Sc2ccc(NC(=O)C3CC3)cc2)nc(Nc2cc(C)[nH]n2)c1OC`: less than 0.1 µM.
The compound `CC(=O)Nc1ccc(Sc2nc3c(c(Nc4cc(C)[nH]n4)n2)C(C)CC3)cc1` (centres unmarked) registered an IC50 of less than 0.1 µM.
For `COc1c(Nc2cc(C)[nH]n2)nc(Sc2ccc(S(=O)(=O)c3cccc([N+](=O)[O-])c3F)cc2F)nc1N1CCOCC1`, the IC50 was less than 0.1 µM.
Next, `COc1c(Nc2cc(C)[nH]n2)nc(Sc2ccc(S(=O)(=O)C(F)c3cccc([N+](=O)[O-])c3F)cc2F)nc1N1CCN(CCN(C)C)CC1` (centres unmarked): less than 0.1 µM; `COc1c(Nc2cc(C)[nH]n2)nc(Sc2ccc(C#Cc3cccc([N+](=O)[O-])c3F)cc2F)nc1N1CCOCC1`: less than 0.1 µM; `COc1c(Nc2cc(C)[nH]n2)nc(Sc2ccc(/C=C/c3cccc([N+](=O)[O-])c3F)cc2F)nc1N1CCOCC1`: less than 0.1 µM.
Next, `COc1c(Nc2cc(C)[nH]n2)nc(Sc2ccc(CCc3cccc([N+](=O)[O-])c3F)cc2F)nc1N1CCOCC1`: less than 0.1 µM; `COc1c(Nc2cc(C)[nH]n2)nc(Sc2ccc(-c3cc4cccc([N+](=O)[O-])c4o3)cc2F)nc1N1CCOCC1`: 0.1 to 1 µM.
In the case of `COc1c(Nc2cc(C)[nH]n2)nc(Sc2ccc(C(=O)Cc3cccc([N+](=O)[O-])c3F)cc2F)nc1N1CCOCC1` it was less than 0.1 µM; in that of `COc1c(Nc2cc(C)[nH]n2)nc(Sc2ccc(C(=O)Oc3cccc([N+](=O)[O-])c3F)cc2F)nc1N1CCOCC1`, less than 0.1 µM.
As to `COc1c(Nc2cc(C)[nH]n2)nc(Sc2ccc(S(=O)(=O)C(C)(C)c3cccc([N+](=O)[O-])c3F)cc2F)nc1N1CCOCC1`, the IC50 was less than 0.1 µM.
`COc1c(Nc2cc(C)[nH]n2)nc(Sc2ccc(NC(=O)c3cccc([N+](=O)[O-])c3)cc2F)nc1N1CCOCC1` had an IC50 of 0.1 to 1 µM.
In the case of `COc1c(Nc2cc(C)[nH]n2)nc(Sc2ccc(S(=O)(=O)Cc3cccc(C#N)c3F)cc2F)nc1N1CCN(CCN(C)C)CC1` it was less than 0.1 µM; in that of `COc1c(Nc2cc(C)[nH]n2)nc(Sc2ccc(S(=O)(=O)C(F)c3cccc(C#N)c3F)cc2F)nc1N1CCOCC1` (centres unmarked), less than 0.1 µM; in that of `COc1c(Nc2cc(C)[nH]n2)nc(Sc2ccc(S(=O)(=O)Nc3cccc([N+](=O)[O-])c3)cc2F)nc1N1CCOCC1`, less than 0.1 µM.
Next, `COc1c(Nc2cc(C)[nH]n2)nc(Sc2ccc(S(=O)(=O)Cc3cccc([N+](=O)[O-])c3F)cc2F)nc1N1CCCC[C@@H]1CO`: less than 0.1 µM; `COc1c(Nc2cc(C)[nH]n2)nc(Sc2ccc(S(=O)(=O)Cc3cccc([N+](=O)[O-])c3F)cc2F)nc1N1CCC(CCN(C)C)CC1`: less than 0.1 µM.
In the case of `COc1c(Nc2cc(C)[nH]n2)nc(Sc2ccc(NC(=O)Cc3cccc([N+](=O)[O-])c3F)cc2F)nc1N1CCOCC1`, the IC50 is less than 0.1 µM.
In the case of `COc1c(Nc2cc(C)[nH]n2)nc(Sc2ccc(S(=O)(=O)C(F)c3cccc([N+](=O)[O-])c3F)cc2F)nc1N1CCC(CCN(C)C)CC1` (centres unmarked) it was less than 0.1 µM.
For the compound `COc1c(Nc2cc(C)[nH]n2)nc(Sc2ccc(S(=O)(=O)C(C)(C)c3cccc([N+](=O)[O-])c3F)cc2F)nc1N1CCCCC1`, the IC50 was less than 0.1 µM.
`COc1c(Nc2cc(C)[nH]n2)nc(Sc2ccc(S(=O)(=O)C(C)(C)c3cccc([N+](=O)[O-])c3F)cc2F)nc1N1CCN(CCN(C)C)CC1` registered an IC50 of less than 0.1 µM.
For `COc1c(Nc2cc(C)[nH]n2)nc(Sc2ccc(S(=O)(=O)C(F)c3cccc([N+](=O)[O-])c3F)cc2F)nc1N1CCOC[C@@H]1CO` (some centres unmarked), the IC50 was less than 0.1 µM.
Take `COc1c(Nc2cc(C)[nH]n2)nc(Sc2ccc(S(=O)(=O)C(F)(F)c3c(F)c(F)cc(F)c3F)cc2F)nc1N1CCOCC1`: the IC50 is less than 0.1 µM.
In the case of `COc1c(Nc2cc(C)[nH]n2)nc(Sc2ccc(S(=O)(=O)C(C)(C)c3c(F)c(F)c(C)c(F)c3F)cc2F)nc1N1CCOCC1` it was less than 0.1 µM.
`COc1c(Nc2cc(C)[nH]n2)nc(Sc2ccc(S(=O)(=O)C(C)(C)c3c(F)c(F)c(C)c(F)c3F)cc2F)nc1N1CCN(CCN(C)C)CC1` showed an IC50 of less than 0.1 µM.
The compound `COc1c(Nc2cc(C)[nH]n2)nc(Sc2ccc(S(=O)(=O)CCc3cccc([N+](=O)[O-])c3F)cc2F)nc1N1CCOCC1` showed a 50% inhibitory concentration (IC50) of less than 0.1 µM.
In the case of `COc1c(Nc2cc(C)[nH]n2)nc(Sc2ccc(S(=O)(=O)C(C)(C)c3cccc([N+](=O)[O-])c3F)cc2F)nc1N1CCC(CCN(C)C)CC1` it was less than 0.1 µM; in that of `COc1c(Nc2cc(C)[nH]n2)nc(Sc2ccc(S(=O)(=O)C(C)(C)c3cccc([N+](=O)[O-])c3F)cc2F)nc1N1CCOC[C@@H]1CO`, less than 0.1 µM.
Next, `COc1c(Nc2cc(C)[nH]n2)nc(Sc2ccc(S(=O)(=O)C(C)(C)c3cccc(Cl)c3F)cc2F)nc1N1CCOCC1`: less than 0.1 µM.
`COc1c(Nc2cc(C)[nH]n2)nc(Sc2ccc(S(=O)(=O)C(C)(C)c3cccc(Br)c3F)cc2F)nc1N1CCN(CCN(C)C)CC1` registered an IC50 of less than 0.1 µM.
`COc1c(Nc2cc(C)[nH]n2)nc(Sc2ccc(S(=O)(=O)C(C)(C)c3cccc(Cl)c3F)cc2F)nc1N1CCN(CCN(C)C)CC1` registered an IC50 of less than 0.1 µM.
In the case of `COc1c(Nc2cc(C)[nH]n2)nc(Sc2ccc(S(=O)(=O)C(C)(C)c3cc(F)cc(Cl)c3F)cc2F)nc1N1CCOCC1` it was less than 0.1 µM; in that of `COc1c(Nc2cc(C)[nH]n2)nc(Sc2ccc(S(=O)(=O)C(F)c3cc(F)cc([N+](=O)[O-])c3F)cc2F)nc1N1CCOCC1` (centres unmarked), less than 0.1 µM; in that of `COc1c(Nc2cc(C)[nH]n2)nc(Sc2ccc(S(=O)(=O)C(C)(C)c3cccc([N+](=O)[O-])c3F)cc2F)nc1N1CCC(N(C)C)CC1`, less than 0.1 µM.
In the case of `COc1c(Nc2cc(C)[nH]n2)nc(Sc2ccc(S(=O)(=O)C(C)(C)c3cccc([N+](=O)[O-])c3F)cc2F)nc1N1CCN(C)CC1` it was less than 0.1 µM; in that of `COc1c(Nc2cc(C)[nH]n2)nc(Sc2ccc(S(=O)(=O)C(C)(C)c3cccc([N+](=O)[O-])c3F)cc2F)nc1N1CCNCC1`, less than 0.1 µM; in that of `COc1c(Nc2cc(C)[nH]n2)nc(Sc2ccc(S(=O)(=O)C(C)(C)c3cccc([N+](=O)[O-])c3F)cc2F)nc1N1CCCC(N(C)C)C1` (centres unmarked), less than 0.1 µM.
Next, `COc1c(Nc2cc(C)[nH]n2)nc(Sc2ccc(S(=O)(=O)C(C)(C)c3cc(F)cc([N+](=O)[O-])c3F)cc2F)nc1N1CCC(CCN(C)C)CC1`: less than 0.1 µM; `COc1c(Nc2cc(C)[nH]n2)nc(Sc2ccc(S(=O)(=O)C(C)(C)c3cccc(Cl)c3F)cc2F)nc1N1CCC(CCN(C)C)CC1`: less than 0.1 µM.
The compound `COc1c(Nc2cc(C)[nH]n2)nc(Sc2ccc(S(=O)(=O)C(C)(C)c3cccc([N+](=O)[O-])c3F)cc2F)nc1N1CCC(CCCN(C)C)CC1` yielded an IC50 of less than 0.1 µM.
In the case of `COc1c(Nc2cc(C)[nH]n2)nc(Sc2ccc(S(=O)(=O)C(C)(C)c3cc(F)cc(Cl)c3F)cc2F)nc1N1CCC(CCN(C)C)CC1` it was less than 0.1 µM.
In the case of `COc1c(Nc2cc(C)[nH]n2)nc(Sc2ccc(S(=O)(=O)C(C)(C)c3cccc([N+](=O)[O-])c3F)cc2F)nc1N1CCC(CN(C)C)CC1` it was less than 0.1 µM; in that of `COc1c(Nc2cc(C)[nH]n2)nc(Sc2ccc(S(=O)(=O)C(C)(C)c3cccc([N+](=O)[O-])c3F)cc2F)nc1N1CCC(CC(=O)N(C)C)CC1`, less than 0.1 µM.
The compound `COc1c(Nc2cc(C)[nH]n2)nc(Sc2ccc(S(=O)(=O)C(C)(C)c3cccc([N+](=O)[O-])c3F)cc2F)nc1N(C)C` showed a half-inhibitory concentration (IC50) of less than 0.1 µM.
Consider `COc1c(Nc2cc(C)[nH]n2)nc(Sc2ccc(S(=O)(=O)C(C)(C)c3cccc([N+](=O)[O-])c3F)cc2F)nc1N1CCC(CCNC(C)=O)CC1`, for which the IC50 is less than 0.1 µM.
In the case of `COc1ccc(CN(C)CCC2CCN(c3nc(Sc4ccc(S(=O)(=O)C(C)(C)c5cc(Cl)cc([N+](=O)[O-])c5F)cc4F)nc(Nc4cc(C)[nH]n4)c3OC)CC2)cc1` it was less than 0.1 µM; in that of `COc1c(Nc2cc(C)[nH]n2)nc(Sc2ccc(S(=O)(=O)C(C)(C)c3c(F)c(F)cc(F)c3F)cc2F)nc1N1CCC(N(C)C)CC1`, less than 0.1 µM; in that of `COc1c(Nc2cc(C)[nH]n2)nc(Sc2ccc(S(=O)(=O)Cc3c(F)c(F)cc(Cl)c3F)cc2F)nc1N1CCOCC1`, less than 0.1 µM.
With `COc1c(Nc2cc(C)[nH]n2)nc(Sc2ccc(S(=O)(=O)Cc3c(F)c(F)cc(Cl)c3F)cc2F)nc1N1CCN(CCN(C)C)CC1`, the 50% inhibitory concentration (IC50) is less than 0.1 µM.
As to `COc1c(Nc2cc(C)[nH]n2)nc(Sc2ccc(S(=O)(=O)Cc3c(F)c(F)cc(Cl)c3F)cc2F)nc1N1CCC(CCN(C)C)CC1`, the IC50 was less than 0.1 µM.
